Measured values reported in patent publication US8680269B2, “Pesticidal compositions” (Dow AgroSciences, LLC., priority 2009, dated 2014).

How the values were obtained:
Assay type in all cases: in vivo
[1] = test system: corn earworm (CEW; Helicoverpa zea); experiment: Insecticidal test for corn earworm, 128-well diet tray assay; conditions: 144 h, 50 μg/cm2 on artificial diet, second instar larvae, six days at 25° C.
Experimental: (§1) Bioassays on corn earworm (CEW; Helicoverpa zea: Lepidoptera) were conducted using a 128-well diet tray assay. Three to five second instar CEW larvae were placed in each well (3 mL) of the diet tray that had been previously filled with 1 mL of artificial diet to which 50 μg/cm^2 of the test compound (dissolved in 50 μL of 90:10 acetone-water mixture) had been applied (to each of eight wells) and then allowed to dry. Trays were covered with a clear self-adhesive cover, and held at 25° C., 14:10 light-dark for six days. Percent mortality was recorded for the larvae in each well; activity in the eight wells was then averaged.

[2] = test system: beet armyworm (BAW; Spodoptera exigua); experiment: Insecticidal test for beet armyworm, 128-well diet tray assay; conditions: 144 h, 50 μg/cm2 on artificial diet, second instar larvae, six days at 25° C.
Experimental: as §1, with “beet armyworm (BAW; Spodoptera exigua:” for “corn earworm (CEW; Helicoverpa zea:”, “BAW” for “CEW”

[3] = test system: green peach aphid (Myzus persicae); experiment: Insecticidal test for green peach aphid in foliar spray assay; conditions: 72 h, 200 ppm foliar spray on cabbage seedlings, graded after three days, Abbott corrected % control, read-out: Mortality GPA 200 ppm
Experimental: Cabbage seedlings grown in 3-inch pots, with 2-3 small (3-5 cm) true leaves, were used as test substrate. The seedlings were infested with 20-50 green peach aphids (wingless adult and nymph) one day prior to chemical application. Four pots with individual seedlings were used for each treatment. Compounds (2 mg) were dissolved in 2 mL of acetone/methanol (1:1) solvent, forming stock solutions of 1000 ppm. The stock solutions were diluted 5× with 0.025% Tween 20 in H2O to obtain the test solution at 200 ppm. A hand-held Devilbiss sprayer was used for spraying a solution to both sides of cabbage leaves until runoff. Reference plants (solvent check) were sprayed with the diluent only. Treated plants were held in a holding room for three days at approximately 25° C. and 40% relative humidity (RH) prior to grading. Evaluation was conducted by counting the number of live aphids per plant under a microscope. Insecticidal activity data, measured by using Abbott's correction formula, are presented in Table 2: Corrected % Control=100*(X−Y)/X • where X=No. of live aphids on solvent check plants • Y=No. of live aphids on treated plants

| SMILES | mortality at 50 µg/cm2 [1] [%] | mortality at 50 µg/cm2 [2] [%] | mortality at 200 ppm [3] [%] |
| --- | --- | --- | --- |
| FC(F)(F)Oc1ccc(NC(=S)N/N=C/c2ccc(-c3ncn(-c4ccc(OC(F)(F)F)cc4)n3)cc2)cc1 [Compound 26] | 50 to 100 | 50 to 100 | < 80 |
| FC(F)(F)Oc1ccc(-n2cnc(-c3ccc(/C=N/NC(=S)NCc4ccco4)cc3)n2)cc1 [Compound 27] | 50 to 100 | 50 to 100 | < 80 |
| COc1ccc(NC(=S)N/N=C/c2ccc(-c3ncn(-c4ccc(OC(F)(F)F)cc4)n3)cc2)cc1 [Compound 28] | 50 to 100 | 50 to 100 | < 80 |
| FC(F)(F)Oc1ccc(-n2cnc(-c3ccc(/C=N/NC(=S)Nc4c(Cl)cccc4Cl)cc3)n2)cc1 [Compound 29] | 50 to 100 | 50 to 100 | < 80 |
| CCOC(=O)CNC(=S)N/N=C/c1ccc(-c2ncn(-c3ccc(OC(F)(F)F)cc3)n2)cc1 [Compound 30] | 50 to 100 | 50 to 100 | < 80 |
| O=C(NC(=S)N/N=C/c1ccc(-c2ncn(-c3ccc(OC(F)(F)F)cc3)n2)cc1)c1ccc([N+](=O)[O-])cc1 [Compound 31] | < 50 | < 50 | < 80 |
| FC(F)(F)Oc1ccc(-n2cnc(-c3ccc(/C=N/NC(=S)Nc4ccc(C(F)(F)F)cc4)cc3)n2)cc1 [Compound 32] | < 50 | < 50 | < 80 |
| CC(=O)c1ccc(NC(=S)N/N=C/c2ccc(-c3ncn(-c4ccc(OC(F)(F)F)cc4)n3)cc2)cc1 [Compound 33] | 50 to 100 | 50 to 100 | < 80 |
| FC(F)(F)Oc1ccc(-n2cnc(-c3ccc(/C=N/NC(=S)NCc4ccc(Cl)cc4)cc3)n2)cc1 [Compound 34] | 50 to 100 | 50 to 100 | < 80 |
| O=C(N/N=C/c1ccc(-c2ncn(-c3ccc(OC(F)(F)F)cc3)n2)cc1)Nc1ccc(F)cc1 [Compound 35] | < 50 | < 50 | < 80 |
| CN(C)c1ccc(NC(=S)N/N=C/c2ccc(-c3ncn(-c4ccc(OC(F)(F)C(F)(F)F)cc4)n3)cc2)cc1 [Compound 36] | 50 to 100 | 50 to 100 | < 80 |
| CN(C)c1ccc(CNC(=S)N/N=C/c2ccc(-c3ncn(-c4ccc(OC(F)(F)F)cc4)n3)cc2)cc1 [Compound 37] | 50 to 100 | 50 to 100 | < 80 |
| CN(C)c1cccc(CNC(=S)N/N=C/c2ccc(-c3ncn(-c4ccc(OC(F)(F)F)cc4)n3)cc2)c1 [Compound 38] | 50 to 100 | 50 to 100 | < 80 |
| CN(C)c1ccccc1CNC(=S)N/N=C/c1ccc(-c2ncn(-c3ccc(OC(F)(F)F)cc3)n2)cc1 [Compound 39] | 50 to 100 | 50 to 100 | < 80 |
| CC(=O)N(C)c1ccc(NC(=S)N/N=C/c2ccc(-c3ncn(-c4ccc(OC(F)(F)F)cc4)n3)cc2)cc1 [Compound 40] | 50 to 100 | 50 to 100 | < 80 |
| CC(=O)Nc1ccc(NC(=S)N/N=C/c2ccc(-c3ncn(-c4ccc(OC(F)(F)F)cc4)n3)cc2)cc1 [Compound 41] | 50 to 100 | 50 to 100 | < 80 |
| CNc1ccc(NC(=S)N/N=C/c2ccc(-c3ncn(-c4ccc(OC(F)(F)F)cc4)n3)cc2)cc1 [Compound 42] | 50 to 100 | 50 to 100 | < 80 |
| CN(C)c1ncc(NC(=S)N/N=C/c2ccc(-c3ncn(-c4ccc(OC(F)(F)F)cc4)n3)cc2)cn1 [Compound 43] | 50 to 100 | 50 to 100 | < 80 |
| CC(=O)Nc1cccc(NC(=S)N/N=C/c2ccc(-c3ncn(-c4ccc(OC(F)(F)F)cc4)n3)cc2)n1 [Compound 44] | < 50 | < 50 | < 80 |
| COc1ccc(NC(=S)N/N=C/c2ccc(-c3ncn(-c4ccc(OC(F)(F)F)cc4)n3)cc2)c(OC)c1 [Compound 45] | 50 to 100 | 50 to 100 | < 80 |

| SMILES | mortality at 50 µg/cm2 [1] [%] | mortality at 50 µg/cm2 [2] [%] | mortality at 200 ppm [3] [%] |
| --- | --- | --- | --- |
| COc1ccc(NC(=S)N/N=C/c2ccc(-c3ncn(-c4ccc(OC(F)(F)F)cc4)n3)cc2)c(C)c1 [Compound 46] | 50 to 100 | 50 to 100 | < 80 |
| Fc1cccc(F)c1NC(=S)N/N=C/c1ccc(-c2ncn(-c3ccc(OC(F)(F)F)cc3)n2)cc1 [Compound 47] | 50 to 100 | 50 to 100 | < 80 |
| CN(C)c1ccc(NC(=S)N/N=C/c2ccc(-c3ncn(-c4ccc(OC(F)(F)F)cc4)n3)cc2)c(C(F)(F)F)c1 [Compound 49] | 50 to 100 | 50 to 100 | < 80 |
| COc1ccc(NC(=S)N/N=C/c2ccc(-c3ncn(-c4ccc(OC(F)(F)F)cc4)n3)cc2)c(F)c1 [Compound 50] | 50 to 100 | 50 to 100 | < 80 |
| COc1ccc(NC(=S)N/N=C/c2ccc(-c3ncn(-c4ccc(OC(F)(F)F)cc4)n3)cc2)c(C(F)(F)F)c1 [Compound 51] | 50 to 100 | 50 to 100 | < 80 |
| CS(=O)(=O)c1ccccc1NC(=S)N/N=C/c1ccc(-c2ncn(-c3ccc(OC(F)(F)F)cc3)n2)cc1 [Compound 52] | 50 to 100 | 50 to 100 | < 80 |
| N#Cc1ccccc1NC(=S)N/N=C/c1ccc(-c2ncn(-c3ccc(OC(F)(F)F)cc3)n2)cc1 [Compound 53] | 50 to 100 | 50 to 100 | < 80 |
| FC(F)(F)Oc1ccc(-n2cnc(-c3ccc(/C=N/NC(=S)Nc4ccccc4Cl)cc3)n2)cc1 [Compound 54] | < 50 | < 50 | < 80 |
| FC(F)(F)Oc1ccc(-n2cnc(-c3ccc(/C=N/NC(=S)Nc4ccc(Cl)cc4Cl)cc3)n2)cc1 [Compound 55] | < 50 | < 50 | < 80 |
| FC(F)(F)Oc1ccc(-n2cnc(-c3ccc(/C=N/NC(=S)Nc4ccc(Cl)cc4)cc3)n2)cc1 [Compound 56] | 50 to 100 | 50 to 100 | < 80 |
| COc1cccc(OC)c1NC(=S)N/N=C/c1ccc(-c2ncn(-c3ccc(OC(F)(F)F)cc3)n2)cc1 [Compound 57] | 50 to 100 | 50 to 100 | < 80 |
| CCOc1ccc(NC(=S)N/N=C/c2ccc(-c3ncn(-c4ccc(OC(F)(F)F)cc4)n3)cc2)cc1 [Compound 58] | 50 to 100 | 50 to 100 | < 80 |
| FC(F)(F)Oc1ccc(-n2cnc(-c3ccc(/C=N/NC(=S)Nc4ccc(Cl)cn4)cc3)n2)cc1 [Compound 59] | < 50 | < 50 | < 80 |
| O=C(c1ccccc1NC(=S)N/N=C/c1ccc(-c2ncn(-c3ccc(OC(F)(F)F)cc3)n2)cc1)C(F)(F)F [Compound 61] | 50 to 100 | 50 to 100 | < 80 |
| CCc1ccccc1NC(=S)N/N=C/c1ccc(-c2ncn(-c3ccc(OC(F)(F)F)cc3)n2)cc1 [Compound 62] | 50 to 100 | 50 to 100 | < 80 |
| Fc1cccc(Cl)c1NC(=S)N/N=C/c1ccc(-c2ncn(-c3ccc(OC(F)(F)F)cc3)n2)cc1 [Compound 63] | 50 to 100 | 50 to 100 | < 80 |
| Fc1c(F)c(F)c(NC(=S)N/N=C/c2ccc(-c3ncn(-c4ccc(OC(F)(F)F)cc4)n3)cc2)c(F)c1F [Compound 64] | 50 to 100 | 50 to 100 | < 80 |
| Cc1cccc(Cl)c1NC(=S)N/N=C/c1ccc(-c2ncn(-c3ccc(OC(F)(F)F)cc3)n2)cc1 [Compound 65] | 50 to 100 | 50 to 100 | < 80 |
| FC(F)(F)Oc1ccc(-n2cnc(-c3ccc(/C=N/NC(=S)Nc4ccccc4OC(F)(F)F)cc3)n2)cc1 [Compound 66] | 50 to 100 | 50 to 100 | < 80 |
